Experimental findings from patent US8278473B2, “Alpha, beta-unsaturated imidate compound and pesticidal composition containing the same” (Sumitomo Chemical Company, Limited, priority 2007, dated 2012) are described below.

For this assay, the system named is Haemaphysalis longicornis. Description: Test Example 10: Haemaphysalis longicornis, treated filter paper pouch. The assay is classed as in vivo. The following applies: 0.5 mg compound on filter paper 5×10 cm; non-blood sucking nymphal ticks; after 2 days. As to the method: In 1 mL of acetone, 0.5 mg of any one of the present compounds 1 to 48 was dissolved, and the solution was spread uniformly on one side of a filter paper (TOYO No. 2; 5×10 cm). After dried, the filter paper was folded into two, and the sides were clipped to make a pouch. Into the pouch, tested ticks (Haemaphysalis longicornis, non-blood sucking nymphal ticks, 10 ticks in a group) were placed. The pouch was clipped and sealed. After 2 days, the number of dead ticks was counted.

`COc1ccc(N=C(Oc2cc(C)cc(C)c2)C(C)=COc2ccc(OC)cc2)cc1` [Compound 281, 3,5-dimethylphenyl N-(4-methoxyphenyl)-3-(4-methoxyphenyloxy)-2-methyl-2-propenimidate] showed a death rate of 100%.

`CCOc1cccc(OC(=Nc2ccc(C)cc2)C(C)=COc2ccccc2OC)c1` [Compound 243, 3-ethoxyphenyl 3-(2-methoxyphenyloxy)-2-methyl-N-(4-methylphenyl)-2-propenimidate] registered a death rate of 100%.

The compound `CC(=COc1ccc(C)cc1)C(=Nc1ccccc1)Oc1ccc(F)cc1` [Compound 199, 4-fluorophenyl 2-methyl-3-(4-methylphenyloxy)-N-phenyl-2-propenimidate] gave a death rate of 100%.

As for `CCc1cccc(OC(=Nc2ccc(C)cc2)C(C)=COc2cccc(C)c2)c1` [Compound 185, 3-ethylphenyl 2-methyl-N-(4-methylphenyl)-3-(3-methylphenyloxy)-2-propenimidate], the death rate is 100%.

Regarding `COc1ccc(N=C(Oc2cccc(OC)c2)C(C)=COc2ccc(OC)cc2)cc1` [Compound 279, 3-methoxyphenyl N-(4-methoxyphenyl)-3-(4-methoxyphenyloxy)-2-methyl-2-propenimidate], the death rate worked out at 100%.

With `CC(=COc1cccc(C)c1)C(=Nc1ccc(C)cc1)Oc1ccccc1` [Compound 183, phenyl 2-methyl-N-(4-methylphenyl)-3-(3-methylphenyloxy)-2-propenimidate], the death rate is 100%.

`COc1ccc(OC=C(C)C(=Nc2ccc(C)cc2)Oc2cc(C)cc(C)c2)cc1` [Compound 275, 3,5-dimethylphenyl 3-(4-methoxyphenyloxy)-2-methyl-N-(4-methylphenyl)-2-propenimidate] had a death rate of 100%.

On to `CC(=COc1ccc(Oc2ccccc2)cc1)C(=Nc1ccccc1)Oc1ccccc1` [Compound 291, phenyl 2-methyl-3-(4-phenoxyphenyloxy)-N-phenyl-2-propenimidate], for which the death rate turned out to be 100%.

`CC(=COc1ccc(C)cc1)C(=Nc1ccccc1)Oc1ccc(Cl)cc1` [Compound 202, 4-chlorophenyl 2-methyl-3-(4-methylphenyloxy)-N-phenyl-2-propenimidate] gave a death rate of 100%.

`CCc1ccc(OC=C(C)C(=Nc2ccccc2)Oc2ccccc2)cc1` [Compound 229, phenyl 3-(4-ethylphenyloxy)-2-methyl-N-phenyl-2-propenimidate] yielded a death rate of 100%.

`CCc1cccc(OC(=Nc2ccc(C)c(C)c2)C(C)=COc2ccc(OC)cc2)c1` [Compound 284, 3-ethylphenyl N-(3,4-dimethylphenyl)-3-(4-methoxyphenyloxy)-2-methyl-2-propenimidate]: the death rate was found to be 100%.

For the compound `COc1ccccc1OC=C(C)C(=Nc1ccc(C)c(C)c1)Oc1cccc(C)c1` [Compound 252, 3-methylphenyl N-(3,4-dimethylphenyl)-3-(2-methoxyphenyloxy)-2-methyl-2-propenimidate], the death rate was determined as 100%.

The compound `COc1ccc(OC=C(C)C(=Nc2ccc(C)cc2)Oc2cccc(OC)c2)cc1` [Compound 273, 3-methoxyphenyl 3-(4-methoxyphenyloxy)-2-methyl-N-(4-methylphenyl)-2-propenimidate] came in with a death rate of 100%.

Consider `CCOc1cccc(OC(=Nc2ccccc2)C(C)=COc2ccccc2OC)c1` [Compound 237, 3-ethoxyphenyl 3-(2-methoxyphenyloxy)-2-methyl-N-phenyl-2-propenimidate], for which the death rate was found to be 100%.

`COc1ccc(N=C(Oc2ccccc2)C(C)=COc2cccc(C)c2)cc1` [Compound 188, phenyl N-(4-methoxyphenyl)-2-methyl-3-(3-methylphenyloxy)-2-propenimidate] came in with a death rate of 100%.

The compound `COc1cccc(OC(=Nc2ccc(C)cc2)C(C)=COc2ccc(C)cc2)c1` [Compound 220, 3-methoxyphenyl 2-methyl-N-(4-methylphenyl)-3-(4-methylphenyloxy)-2-propenimidate] returned a death rate of 100%.
